pKi: −log10 of the molar value.
molecular target: T1, Gonadotropin-releasing hormone receptor (Homo sapiens, UniProt P30968); test: Binding affinity against human gonadotropin-releasing hormone receptor
T1 sequence (P30968 whole entry): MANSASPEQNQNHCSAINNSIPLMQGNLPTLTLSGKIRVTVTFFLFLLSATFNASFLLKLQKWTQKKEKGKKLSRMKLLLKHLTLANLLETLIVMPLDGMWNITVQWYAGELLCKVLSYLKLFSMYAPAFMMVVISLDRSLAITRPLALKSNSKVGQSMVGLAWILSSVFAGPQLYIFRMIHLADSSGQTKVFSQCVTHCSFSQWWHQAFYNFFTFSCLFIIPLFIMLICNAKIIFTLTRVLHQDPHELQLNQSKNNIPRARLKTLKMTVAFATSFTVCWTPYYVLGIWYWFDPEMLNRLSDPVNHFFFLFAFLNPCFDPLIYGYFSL

| SMILES | pKi |
| --- | --- |
| COC(=O)C(C)(C)c1nc2n(Cc3ccccc3F)c(C)c(-c3cccc(OC)c3)c(=O)n2c1CN(C)Cc1ccccn1 | 8.38 |
| CCN(CCc1ccccn1)Cc1c(C(C)(C)C)nc2n(Cc3ccccc3F)c(C)c(-c3cccc(OC)c3)c(=O)n12 | 8.10 |
| COC(=O)C(C)(C)c1nc2n(Cc3ccccc3F)c(C)c(-c3cccc(OC)c3)c(=O)n2c1CN(C)Cc1ccccc1O | 6.31 |
| CCCCN(C)Cc1c(C(C)(C)C(=O)OC)nc2n(Cc3ccccc3F)c(C)c(-c3cccc(OC)c3)c(=O)n12 | 6.49 |
| COC(=O)C(C)(C)c1nc2n(Cc3ccccc3F)c(C)c(-c3cccc(OC)c3)c(=O)n2c1CN(C)Cc1cccnc1 | 6.40 |
| COC(=O)C(C)(C)c1nc2n(Cc3ccccc3F)c(C)c(-c3cccc(OC)c3)c(=O)n2c1CN1CCN(C)CC1 | 5.11 |
| COC(=O)C(C)(C)c1nc2n(Cc3ccccc3F)c(C)c(-c3cccc(OC)c3)c(=O)n2c1CN1CCC(c2ccccc2)CC1 | 5.29 |
| COc1cccc(-c2c(C)n(Cc3ccccc3F)c3nc(C(C)(C)C)c(CNCC4CCCCC4)n3c2=O)c1 | 6.37 |
| COc1cccc(-c2c(C)n(Cc3ccccc3F)c3nc(C(C)(C)C)c(CN(C)CCc4ccccc4)n3c2=O)c1 | 6.72 |
| COc1cccc(-c2c(C)n(Cc3ccccc3F)c3nc(C(C)(C)C)c(CNCc4ccccc4)n3c2=O)c1 | 6.62 |
| COC(=O)C(C)(C)c1nc2n(Cc3ccccc3F)c(C)c(-c3cccc(OC)c3)c(=O)n2c1CN(C)Cc1ccccc1 | 7.23 |
| CCN(CC)CCN(C)Cc1c(C(C)(C)C)nc2n(Cc3ccccc3F)c(C)c(-c3cccc(OC)c3)c(=O)n12 | 6.59 |
| COc1cccc(-c2c(C)n(Cc3ccccc3F)c3nc(C(C)(C)CO)c(CN(C)Cc4ccccn4)n3c2=O)c1 | 8.10 |
| COc1cccc(-c2c(C)n(Cc3ccccc3F)c3nc(C(C)(C)C)c(CN(C)Cc4ccccn4)n3c2=O)c1 | 7.96 |
| COc1cccc(-c2c(C)n(Cc3ccccc3F)c3nc4c(n3c2=O)CN(CCc2ccccn2)CC4(C)C)c1 | 4.92 |
| COC(=O)C(C)(C)c1nc2n(Cc3ccccc3F)c(C)c(-c3cccc(OC)c3)c(=O)n2c1CN1CCc2ccccc2C1 | 5.04 |

More lines, now with the values ahead:

| pKi | SMILES |
| --- | --- |
| 6.80 | COc1cccc(-c2c(C)n(Cc3ccccc3F)c3nc(C(C)(C)C)c(CNCCc4ccccn4)n3c2=O)c1 |
| 6.46 | COc1cccc(-c2c(C)n(Cc3ccccc3F)c3nc(C(C)(C)CNCCc4ccccn4)cn3c2=O)c1 |
| 5.77 | COc1cccc(-c2c(C)n(Cc3ccccc3F)c3nc(C(C)(C)C)c(CN(C)C)n3c2=O)c1 |
| 7.14 | COc1cccc(-c2c(C)n(Cc3ccccc3F)c3nc(C(C)(C)C)c(CN(C)Cc4ccccc4)n3c2=O)c1 |
| 8.92 | COC(=O)C(C)(C)c1nc2n(Cc3ccccc3F)c(C)c(-c3cccc(OC)c3)c(=O)n2c1CN(C)CCc1ccccn1 |
| 5.19 | COc1cccc(-c2c(C)n(Cc3ccccc3F)c3nc(C(C)(C)C)c(CNCC4CCCC4)n3c2=O)c1 |
| 6.89 | COC(=O)C(C)(C)c1nc2n(Cc3ccccc3F)c(C)c(-c3cccc(OC)c3)c(=O)n2c1CN(C)CCc1ccccc1 |
| 7.52 | COc1cccc(-c2c(C)n(Cc3ccccc3F)c3nc(C(C)(C)C)c(CNCc4ccccn4)n3c2=O)c1 |
| 6.52 | COCCN(C)Cc1c(C(C)(C)C(=O)OC)nc2n(Cc3ccccc3F)c(C)c(-c3cccc(OC)c3)c(=O)n12 |
| 8.28 | COc1cccc(-c2c(C)n(Cc3ccccc3F)c3nc(C(C)(C)C)c(CN(C)CCc4ccccn4)n3c2=O)c1 |
| 6.37 | COCCN(C)Cc1c(C(C)(C)C)nc2n(Cc3ccccc3F)c(C)c(-c3cccc(OC)c3)c(=O)n12 |

Reference: ChEMBL document CHEMBL1136785, “Design and structure-activity relationships of 2-alkyl-3-aminomethyl-6-(3-methoxyphenyl)-7-methyl-8-(2-fluorobenzyl)imidazolo[1,2-a]pyrimid-5-ones as potent GnRH receptor antagonists” (J Med Chem, 2003)
